In publication PMC11707430, “Novel antibiotics against Staphylococcus aureus without detectable resistance by targeting proton motive force and FtsH” (MedComm, 2025):
Converted amounts (≈) assume the structure as drawn.

Legend:
A. baumannii = test: MIC determination by microbroth dilution; type: cell-based; details: Acinetobacter baumannii, ATCC19606; ATCC 19606
Protocol: (§1) Minimal inhibitory concentration (MIC) determination. The detection of MIC was performed by the microbroth dilution method with reference to the previously report by Wang et al^2. Briefly, the fresh bacterial suspension was adjusted to a McF standard equivalent of 0.5 (~1.5 × 10^8 CFU/mL) and then 100-fold diluted with MH broth. Fifty microliters of bacterial suspension with equal volume of serially diluted compounds (1-128 µg/mL) were added into a 96-well cell plate (Corning Costar, the United States) and incubated at 37°C for 16-18 h. The bacterial suspension without compounds was used as a negative control. The lowest concentration that inhibited visible bacterial growth was considered as the value of MIC.

E. coli = test: MIC determination by microbroth dilution; type: cell-based; details: Escherichia coli, ATCC25922; ATCC 25922
Protocol: as §1

E. faecalis = test: MIC determination by microbroth dilution; type: cell-based; details: Enterococcus faecalis
Protocol: as §1

E. faecium = test: MIC determination by microbroth dilution; type: cell-based; details: Enterococcus faecium
Protocol: as §1

K. pneumoniae = test: MIC determination by microbroth dilution; type: cell-based; details: Klebsiella pneumoniae, ATCC700603; ATCC 700603
Protocol: as §1

P. aeruginosa = test: MIC determination by microbroth dilution; type: cell-based; details: Pseudomonas aeruginosa, PAO1
Protocol: as §1

S. epidermidis = test: MIC determination by microbroth dilution; type: cell-based; details: Staphylococcus epidermidis
Protocol: as §1

S. aureus ATCC 43300 = test: Concentration-dependent growth inhibition; type: cell-based
Protocol: Concentration-dependent growth inhibition. S. aureus was cultured in TSB to log phase, and diluted with MH broth to ~2×10^6 CFU/mL. One hundred microliters of the bacterial suspension with an equal volume of 2-fold diluted compounds were added in a 96-well cell culture plate. After incubation at 37 ℃ for 16h, the bacterial growth was quantified by measuring the OD value at 630nm (OD630nm).

WP2uvrA (pKM101) = test: Ames test; type: cell-based, E. coli
Protocol: Ames test. Genotoxicity of the compounds was determined by Ames Kit (IPHASE, Beijing, China) containing Salmonella typhimurium (TA97a, TA98, TA100, and TA1535) and E. coli WP2 uvrA (pKM101). Diclofenac and 2-aminofluorene were used as positive controls for TA97a and TA98. Methyl methanesulfonate and 2-aminofluorene were used as positive controls for TA100. Methyl methanesulfonate and 2-aminoanthracene were used as positive controls for WP2 uvrA (pKM101). NaN3 and 2-aminoanthracene were used as positive controls for TA1535. The bottom and top layer culture medium, and S9 mixed solution were prepared according to the manufacturer’s instructions. After incubation at 37℃ for 48h, the colonies were counted.

FtsH = FtsH (Staphylococcus aureus, UniProt Q2G0R0); test: Surface plasmon resonance (SPR); type: binding, S. aureus ATCC 43300; details: 25 °C
Protocol: Surface plasmon resonance (SPR). To detect the affinity between the small molecular compounds and FtsH, SPR analyses were performed on a multiple flow cell Biacore T200 instrument (Cytiva, the United States). Briefly, FtsH (35.5 µg/mL in 10 mM sodium acetate buffer, pH= 4.0) was covalently immobilized on a dextran matrix CM5 sensor chip surface in three different flow cells. The excessive active groups on the dextran matrix were blocked using 1 M ethanolamine at the velocity of 10 μL/min for 15 min. The uncoated reference flow cell on the fourth flow cell was prepared on the dextran matrix treated as described above but without any ligand. 1×PBS (pH 7.4) containing 2 mM KH2PO4, 137 mM NaCl, 10 mM Na2HPO4, 2.7 mM KCl and 5%DMSO was used as the running buffer. In the running buffer, a 2-fold serially diluted of compounds was passed over the ligand at a flow rate of 30 µL/min. The sensorgrams were recorded at 25 °C. The response units at the steady state were fitted to the Langmuir equation to yield the Kd values^35.
Protein synthesis and purification. The primers in this study were designed according to the sequence of S. aureus ATCC 43300 genome published on NCBI. […] Finally, the target protein was detected by SDS-PAGE. […]

S. aureus = test: Peritonitis-sepsis model; type: in vivo, ICR mice; details: i.p., 24 h postinfection
Protocol: Peritonitis-sepsis model. Six to seven-week-old female ICR mice were included. […] Mice were injected with 500 μL of the suspension in the presence of 5% mucin by i.p.. An hour post-infection, the mice were administered with: 1) EL+ethanol, 2) […]-0546 (30 mg/kg), and 3) STK848198 (30 mg/kg) alone or in combination with ampicillin (AMP, 25 mg/kg)^38 or amikacin (AMK, 25 mg/kg).

Chain of FtsH (Q2G0R0 entry or part of it): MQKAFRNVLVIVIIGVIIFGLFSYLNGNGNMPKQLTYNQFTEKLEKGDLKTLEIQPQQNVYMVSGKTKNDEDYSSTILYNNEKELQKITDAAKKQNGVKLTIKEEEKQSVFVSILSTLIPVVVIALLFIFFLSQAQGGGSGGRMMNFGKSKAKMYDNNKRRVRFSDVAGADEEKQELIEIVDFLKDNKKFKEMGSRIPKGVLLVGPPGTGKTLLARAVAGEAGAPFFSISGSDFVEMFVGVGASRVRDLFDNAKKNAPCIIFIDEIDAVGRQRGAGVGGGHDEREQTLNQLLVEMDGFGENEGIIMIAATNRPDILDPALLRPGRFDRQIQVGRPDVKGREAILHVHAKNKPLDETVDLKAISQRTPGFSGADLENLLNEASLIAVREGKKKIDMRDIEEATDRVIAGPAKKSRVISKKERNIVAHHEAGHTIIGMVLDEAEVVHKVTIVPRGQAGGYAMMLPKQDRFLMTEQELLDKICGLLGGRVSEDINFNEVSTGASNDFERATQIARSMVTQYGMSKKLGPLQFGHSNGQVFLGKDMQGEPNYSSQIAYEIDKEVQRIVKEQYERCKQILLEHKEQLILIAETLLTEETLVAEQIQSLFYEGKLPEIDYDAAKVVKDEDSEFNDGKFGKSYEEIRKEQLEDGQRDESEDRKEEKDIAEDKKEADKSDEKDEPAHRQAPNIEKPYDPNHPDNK

**Q.** What does the source list for `Cc1nc2c(-c3ccc(Cl)cc3)cnn2c(O)c1Cc1ccccc1` [STK848198]?
**A.** MIC (A. baumannii): > 32 µg/mL; MIC (E. coli): > 32 µg/mL; MIC (E. faecalis; ATCC29212, ATCC 29212): 4 µg/mL (≈ 11.4 µM); MIC (E. faecalis; ATCC51299, ATCC 51299, vancomycin resistant strain): 4 µg/mL (≈ 11.4 µM); MIC (E. faecium; ATCC19434, ATCC 19434): 8 µg/mL (≈ 22.9 µM); MIC (E. faecium; U101, vancomycin resistant strain): 4 µg/mL (≈ 11.4 µM); MIC (K. pneumoniae): > 32 µg/mL; MIC (P. aeruginosa): > 32 µg/mL; MIC (S. epidermidis; ATCC12228, ATCC 12228): 1 µg/mL (≈ 2.86 µM); MIC (S. epidermidis; RP62A): 1 µg/mL (≈ 2.86 µM); concentration at which growth inhibition was observed (S. aureus ATCC 43300): 0.25 ×MIC; CFU(x±SD) (WP2uvrA (pKM101); +S9, 25 μg/well): 29 ±4 CFU; Fold Change (WP2uvrA (pKM101); +S9, 25 μg/well): 0.9; CFU(x±SD) (WP2uvrA (pKM101); +S9, 50 μg/well): 26 ±4 CFU; Fold Change (WP2uvrA (pKM101); +S9, 50 μg/well): 0.8; CFU(x±SD) (WP2uvrA (pKM101); +S9, 100 μg/well): 26 ±3 CFU; Fold Change (WP2uvrA (pKM101); +S9, 100 μg/well): 0.8; CFU(x±SD) (WP2uvrA (pKM101); +S9, 200 μg/well): 29 ±3 CFU; Fold Change (WP2uvrA (pKM101); +S9, 200 μg/well): 0.9; CFU(x±SD) (WP2uvrA (pKM101); +S9, 400 μg/well): 28 ±3 CFU; Fold Change (WP2uvrA (pKM101); +S9, 400 μg/well): 0.9; CFU(x±SD) (WP2uvrA (pKM101); -S9, 25 μg/well): 22±2 CFU; Fold Change (WP2uvrA (pKM101); -S9, 25 μg/well): 1; CFU(x±SD) (WP2uvrA (pKM101); -S9, 50 μg/well): 23±4 CFU; Fold Change (WP2uvrA (pKM101); -S9, 50 μg/well): 1; CFU(x±SD) (WP2uvrA (pKM101); -S9, 100 μg/well): 21±1 CFU; Fold Change (WP2uvrA (pKM101); -S9, 100 μg/well): 0.9; CFU(x±SD) (WP2uvrA (pKM101); -S9, 200 μg/well): 24±3 CFU; Fold Change (WP2uvrA (pKM101); -S9, 200 μg/well): 1; CFU(x±SD) (WP2uvrA (pKM101); -S9, 400 μg/well): 23±1 CFU; Fold Change (WP2uvrA (pKM101); -S9, 400 μg/well): 1; Kd (FtsH): 31 µM; bacterial loads in liver, spleen, lung, and kidney (S. aureus; STK848198 30 mg/kg combined with AMP 25 mg/kg): significantly reduced the bacterial loads; bacterial loads in organs (S. aureus; single use, vs vehicle): no statistical difference
